Values of other authors in article PMC9781217, “Discovery of Novel and Selective G-Protein Coupled Receptor 120 (GPR120) Agonists for the Treatment of Type 2 Diabetes Mellitus” (Molecules, 2022).

Assays:
GPR40 = test system: GPR40; parameters: method as in ref 15-26 = [15]; PMID 22519963; doi:10.1021/jm300215x; 15. Shimpukade B. Hudson B.D. Hovgaard C.K. Milligan G. Ulven T. Discovery of a potent and selective GPR120 agonist J. Med. Chem. 2012 55 4511 4515 10.1021/jm300215x 22519963 || [16]; PMID 24881566; doi:10.1016/j.bmcl.2014.05.012; 16. Sparks S.M. Chen G. Collins J.L. Danger D. Dock S.T. Jayawickreme C. Jenkinson S. Laudeman C. Leesnitzer M.A. Liang X. Identification of diarylsulfonamides as agonists of the free fatty acid recep || [17]; PMID 27570890; doi:10.1021/acs.jmedchem.6b00685; 17. Azevedo C.M. Watterson K.R. Wargent E.T. Hansen S.V. Hudson B.D. Kepczynska M.A. Dunlop J. Shimpukade B. Christiansen E. Milligan G. Non-Acidic Free Fatty Acid Receptor 4 Agonists with Antidiabeti || [18]; PMID 27815121; doi:10.1016/j.bmcl.2016.10.054; 18. Lombardo M. Bender K. London C. Kirkland M. Mane J. Pachanski M. Geissler W. Cummings J. Habulihaz B. Akiyama T.E. Discovery of benzofuran propanoic acid GPR120 agonists: From uHTS hit to mechanis || [19]; PMID 28105282; doi:10.1021/acsmedchemlett.6b00394; 19. Adams G.L. Velazquez F. Jayne C. Shah U. Miao S. Ashley E.R. Madeira M. Akiyama T.E. Di Salvo J. Suzuki T. Discovery of Chromane Propionic Acid Analogues as Selective Agonists of GPR120 with in Vi; details: cited from earlier work; for EC50: Figure 1, representative GPR120 agonists
GPR120 = test system: GPR120; parameters: method as in ref 15-26 = [15]; PMID 22519963; doi:10.1021/jm300215x; 15. Shimpukade B. Hudson B.D. Hovgaard C.K. Milligan G. Ulven T. Discovery of a potent and selective GPR120 agonist J. Med. Chem. 2012 55 4511 4515 10.1021/jm300215x 22519963 || [16]; PMID 24881566; doi:10.1016/j.bmcl.2014.05.012; 16. Sparks S.M. Chen G. Collins J.L. Danger D. Dock S.T. Jayawickreme C. Jenkinson S. Laudeman C. Leesnitzer M.A. Liang X. Identification of diarylsulfonamides as agonists of the free fatty acid recep || [17]; PMID 27570890; doi:10.1021/acs.jmedchem.6b00685; 17. Azevedo C.M. Watterson K.R. Wargent E.T. Hansen S.V. Hudson B.D. Kepczynska M.A. Dunlop J. Shimpukade B. Christiansen E. Milligan G. Non-Acidic Free Fatty Acid Receptor 4 Agonists with Antidiabeti || [18]; PMID 27815121; doi:10.1016/j.bmcl.2016.10.054; 18. Lombardo M. Bender K. London C. Kirkland M. Mane J. Pachanski M. Geissler W. Cummings J. Habulihaz B. Akiyama T.E. Discovery of benzofuran propanoic acid GPR120 agonists: From uHTS hit to mechanis || [19]; PMID 28105282; doi:10.1021/acsmedchemlett.6b00394; 19. Adams G.L. Velazquez F. Jayne C. Shah U. Miao S. Ashley E.R. Madeira M. Akiyama T.E. Di Salvo J. Suzuki T. Discovery of Chromane Propionic Acid Analogues as Selective Agonists of GPR120 with in Vi; details: Figure 1, representative GPR120 agonists; cited from earlier work
human GPR120 = test system: human GPR120; parameters: method as in ref 15-27 = [15]; PMID 22519963; doi:10.1021/jm300215x; 15. Shimpukade B. Hudson B.D. Hovgaard C.K. Milligan G. Ulven T. Discovery of a potent and selective GPR120 agonist J. Med. Chem. 2012 55 4511 4515 10.1021/jm300215x 22519963 || [16]; PMID 24881566; doi:10.1016/j.bmcl.2014.05.012; 16. Sparks S.M. Chen G. Collins J.L. Danger D. Dock S.T. Jayawickreme C. Jenkinson S. Laudeman C. Leesnitzer M.A. Liang X. Identification of diarylsulfonamides as agonists of the free fatty acid recep || [17]; PMID 27570890; doi:10.1021/acs.jmedchem.6b00685; 17. Azevedo C.M. Watterson K.R. Wargent E.T. Hansen S.V. Hudson B.D. Kepczynska M.A. Dunlop J. Shimpukade B. Christiansen E. Milligan G. Non-Acidic Free Fatty Acid Receptor 4 Agonists with Antidiabeti || [18]; PMID 27815121; doi:10.1016/j.bmcl.2016.10.054; 18. Lombardo M. Bender K. London C. Kirkland M. Mane J. Pachanski M. Geissler W. Cummings J. Habulihaz B. Akiyama T.E. Discovery of benzofuran propanoic acid GPR120 agonists: From uHTS hit to mechanis || [19]; PMID 28105282; doi:10.1021/acsmedchemlett.6b00394; 19. Adams G.L. Velazquez F. Jayne C. Shah U. Miao S. Ashley E.R. Madeira M. Akiyama T.E. Di Salvo J. Suzuki T. Discovery of Chromane Propionic Acid Analogues as Selective Agonists of GPR120 with in Vi; details: cited from earlier work
hGPR40 = test system: hGPR40; parameters: method as in ref 15-26 = [15]; PMID 22519963; doi:10.1021/jm300215x; 15. Shimpukade B. Hudson B.D. Hovgaard C.K. Milligan G. Ulven T. Discovery of a potent and selective GPR120 agonist J. Med. Chem. 2012 55 4511 4515 10.1021/jm300215x 22519963 || [16]; PMID 24881566; doi:10.1016/j.bmcl.2014.05.012; 16. Sparks S.M. Chen G. Collins J.L. Danger D. Dock S.T. Jayawickreme C. Jenkinson S. Laudeman C. Leesnitzer M.A. Liang X. Identification of diarylsulfonamides as agonists of the free fatty acid recep || [17]; PMID 27570890; doi:10.1021/acs.jmedchem.6b00685; 17. Azevedo C.M. Watterson K.R. Wargent E.T. Hansen S.V. Hudson B.D. Kepczynska M.A. Dunlop J. Shimpukade B. Christiansen E. Milligan G. Non-Acidic Free Fatty Acid Receptor 4 Agonists with Antidiabeti || [18]; PMID 27815121; doi:10.1016/j.bmcl.2016.10.054; 18. Lombardo M. Bender K. London C. Kirkland M. Mane J. Pachanski M. Geissler W. Cummings J. Habulihaz B. Akiyama T.E. Discovery of benzofuran propanoic acid GPR120 agonists: From uHTS hit to mechanis || [19]; PMID 28105282; doi:10.1021/acsmedchemlett.6b00394; 19. Adams G.L. Velazquez F. Jayne C. Shah U. Miao S. Ashley E.R. Madeira M. Akiyama T.E. Di Salvo J. Suzuki T. Discovery of Chromane Propionic Acid Analogues as Selective Agonists of GPR120 with in Vi; details: Figure 1; cited from earlier work

Compound: Cc1ccc(-n2nc(C)c3cnc(-c4ccc([C@H]5C[C@@H]5C(=O)O)cc4)cc32)nc1 [Compound 3]
- EC50 (GPR40): > 100000 nM
- EC50 (GPR120): 740 nM

Compound: O=S1(=O)c2ccccc2CN1c1cc(F)cc(Oc2ccccn2)c1 [Compound 5]
- GPR40 activity (GPR40; at 100 μM, Figure 1): Inactive
- EC50 (GPR120): 123 nM

Compound: Cc1ccc(-c2ccc(F)cc2COc2ccc(CC3SC(=O)NC3=O)c(Cl)c2)cc1 (stereo not drawn) [Compound 8]
- EC50 (GPR40): 79000 nM
- EC50 (GPR120): 76 nM

Compound: O=C(O)CCc1cc(F)c(OCc2c(-c3ccc(Cl)cc3F)nsc2C(F)(F)F)c(F)c1 [Compound 7]
- EC50 (GPR40): > 5000 nM
- EC50 (GPR120): 42 nM

Compound: CO[C@H]1C[C@H](Oc2cc(F)c(F)c(-c3c(F)cc(OCCCC(=O)O)cc3F)c2)C1 [Compound 6]
- EC50 (human GPR120): 93 nM
- EC50 (hGPR40): > 100000 nM

Compound: CO[C@H]1C[C@H](Oc2cc(F)c(F)c(-c3ccc4c(c3)CC[C@H](CCC(=O)O)O4)c2)C1 [Compound 4]
- EC50 (GPR40): > 10000 nM
- EC50 (GPR120): 35 nM
